Measurements taken from US20110118262A1, “Pyrrolidinyl and Piperidinyl Compounds Useful as NHE-1 Inhibitiors” (BOEHRINGER INGELHEIM INTERNATIONAL GMBH, priority 2008, published 2011).

Biological target: T1, NHE-1 (Homo sapiens, UniProt P19634)
T1 construct: endogenous in cells; host or cells: HT-29
Assay: Evaluation of NHE-1 Inhibition (pHi) in HT-29 cells
Type: cell-based
Details: BCECF dye, 50% inhibition of the intracellular pH recovery, read-out: NHE1 HT29 pHi IC50
Method in brief: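 Intracellular pH measured with BCECF in HT-29 cells after 24 h culture. Cells dye-loaded 30 min at 37° C, then acid-loaded with NH4Cl-containing choline buffer (pH 7.5) for 30 min at RT. Compounds added on an FDSS6000 fluorescence reader.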

T1 sequence (P19634 whole entry): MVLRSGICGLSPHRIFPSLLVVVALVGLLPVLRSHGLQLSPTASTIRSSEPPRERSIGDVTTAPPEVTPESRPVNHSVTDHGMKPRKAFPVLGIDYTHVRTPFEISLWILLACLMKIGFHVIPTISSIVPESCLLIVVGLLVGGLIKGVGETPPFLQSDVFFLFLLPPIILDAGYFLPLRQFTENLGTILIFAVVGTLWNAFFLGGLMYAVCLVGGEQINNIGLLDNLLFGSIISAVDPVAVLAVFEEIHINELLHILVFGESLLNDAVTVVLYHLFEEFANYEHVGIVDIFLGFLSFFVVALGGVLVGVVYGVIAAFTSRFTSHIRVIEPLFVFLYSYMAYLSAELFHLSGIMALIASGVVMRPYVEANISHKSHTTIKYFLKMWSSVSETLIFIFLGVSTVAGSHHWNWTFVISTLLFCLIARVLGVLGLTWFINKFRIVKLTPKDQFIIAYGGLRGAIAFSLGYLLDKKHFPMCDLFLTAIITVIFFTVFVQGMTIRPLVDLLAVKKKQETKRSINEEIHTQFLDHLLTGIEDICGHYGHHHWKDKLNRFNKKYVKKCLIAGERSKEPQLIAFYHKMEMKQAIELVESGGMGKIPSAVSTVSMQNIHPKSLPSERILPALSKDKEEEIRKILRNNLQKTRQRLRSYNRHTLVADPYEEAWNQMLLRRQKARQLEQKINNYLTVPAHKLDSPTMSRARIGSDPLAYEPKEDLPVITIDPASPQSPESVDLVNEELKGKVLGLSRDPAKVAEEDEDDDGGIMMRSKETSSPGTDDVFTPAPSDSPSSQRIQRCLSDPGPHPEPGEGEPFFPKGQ

SMILES	IC50
CC(C)(C)C(=O)N1CCC(c2ccc(C(=O)NC(=N)N)cc2C(F)(F)F)CC1 [N-{4-[1-(2,2-Dimethyl-propionyl)-piperidin-4-yl]-3-trifluoromethyl-benzoyl}-guanidine]	68 nM
N=C(N)NC(=O)c1ccc(C2CCN(C(=O)c3ccc4c(c3)OCCO4)CC2)c(C(F)(F)F)c1 [N-{4-[1-(2,3-Dihydro-benzo[1,4]dioxine-6-carbonyl)-piperidin-4-yl]-3-trifluoromethyl-benzoyl}-guanidine]	130 nM
N=C(N)NC(=O)c1ccc(C2CCN(C(=O)c3ccc4c(c3)CCO4)CC2)c(C(F)(F)F)c1 [N-{4-[1-(2,3-Dihydro-benzofuran-5-carbonyl)-piperidin-4-yl]-3-trifluoromethyl-benzoyl}-guanidine]	23 nM
COc1cccc(C(=O)N2CCC(c3ccc(C(=O)NC(=N)N)cc3C(F)(F)F)CC2)c1OC [N-{4-[1-(2,3-Dimethoxy-benzoyl)-piperidin-4-yl]-3-trifluoromethyl-benzoyl}-guanidine]	46 nM
Cc1cc(C2CCN(C(=O)C(C)(C)N)CC2)c(C(F)(F)F)cc1C(=O)NC(=N)N [N-{4-[1-(2-Amino-2-methyl-propionyl)-piperidin-4-yl]-2-methyl-5-trifluoromethyl-benzoyl}-guanidine]	10 nM
CC(C)(N)C(=O)N1CCC(c2ccc(C(=O)NC(=N)N)cc2C(F)(F)F)CC1 [N-{4-[1-(2-Amino-2-methyl-propionyl)-piperidin-4-yl]-3-trifluoromethyl-benzoyl}-guanidine]	8 nM
CC(C)(C)C(N)C(=O)N1CCC(c2ccc(C(=O)NC(=N)N)cc2C(F)(F)F)CC1 (centres unmarked) [N-{4-[1-(2-Amino-3,3-dimethyl-butyryl)-piperidin-4-yl]-3-trifluoromethyl-benzoyl}-guanidine]	16 nM
N=C(N)NC(=O)c1ccc(C2CCN(C(=O)C(N)CC3CC3)CC2)c(C(F)(F)F)c1 (centres unmarked) [N-{4-[1-(2-Amino-3-cyclopropyl-propionyl)-piperidin-4-yl]-3-trifluoromethyl-benzoyl}-guanidine]	19 nM
N=C(N)NC(=O)c1ccc(C2CCN(C(=O)C(N)CO)CC2)c(C(F)(F)F)c1 (centres unmarked) [N-{4-[1-(2-Amino-3-hydroxy-propionyl)-piperidin-4-yl]-3-trifluoromethyl-benzoyl}-guanidine]	5 nM
CC(C)C(N)C(=O)N1CCC(c2ccc(C(=O)NC(=N)N)cc2C(F)(F)F)CC1 (centres unmarked) [N-{4-[1-(2-Amino-3-methyl-butyryl)-piperidin-4-yl]-3-trifluoromethyl-benzoyl}-guanidine]	12 nM
N=C(N)NC(=O)c1ccc(C2CCN(C(=O)C(N)Cc3ccccc3)CC2)c(C(F)(F)F)c1 (centres unmarked) [N-{4-[1-(2-Amino-3-phenyl-propionyl)-piperidin-4-yl]-3-trifluoromethyl-benzoyl}-guanidine]	19 nM
N=C(N)NC(=O)c1ccc(C2CCN(C(=O)C(N)Cc3ccncc3)CC2)c(C(F)(F)F)c1 (centres unmarked) [N-{4-[1-(2-Amino-3-pyridin-4-yl-propionyl)-piperidin-4-yl]-3-trifluoromethyl-benzoyl}-guanidine]	32 nM
N=C(N)NC(=O)c1ccc(C2CCN(C(=O)C(N)Cc3cccs3)CC2)c(C(F)(F)F)c1 (centres unmarked) [N-{4-[1-(2-Amino-3-thiophen-2-yl-propionyl)-piperidin-4-yl]-3-trifluoromethyl-benzoyl}-guanidine]	35 nM
CC(C)CC(N)C(=O)N1CCC(c2ccc(C(=O)NC(=N)N)cc2C(F)(F)F)CC1 (centres unmarked) [N-{4-[1-(2-Amino-4-methyl-pentanoyl)-piperidin-4-yl]-3-trifluoromethyl-benzoyl}-guanidine]	40 nM
CSCCC(N)C(=O)N1CCC(c2ccc(C(=O)NC(=N)N)cc2C(F)(F)F)CC1 (centres unmarked) [N-{4-[1-(2-Amino-4-methylsulfanyl-butyryl)-piperidin-4-yl]-3-trifluoromethyl-benzoyl}-guanidine]	13 nM
N=C(N)NC(=O)c1ccc(C2CCN(C(=O)CN)CC2)c(C(F)(F)F)c1 [N-{4-[1-(2-Amino-acetyl)-piperidin-4-yl]-3-trifluoromethyl-benzoyl}-guanidine]	4 nM
CC(N)C(=O)N1CCC(c2ccc(C(=O)NC(=N)N)cc2C(F)(F)F)CC1 (centres unmarked) [N-{4-[1-(2-Amino-propionyl)-piperidin-4-yl]-3-trifluoromethyl-benzoyl}-guanidine]	5 nM

Continued, values first:

IC50	SMILES
60 nM	CS(=O)(=O)c1ccc(C(=O)N2CCC(c3ccc(C(=O)NC(=N)N)cc3C(F)(F)F)CC2)c(Cl)c1 [N-{4-[1-(2-Chloro-4-methanesulfonyl-benzoyl)-piperidin-4-yl]-3-trifluoromethyl-benzoyl}-guanidine]
119 nM	N=C(N)NC(=O)c1ccc(C2CCN(C(=O)c3ccccc3Cl)CC2)c(C(F)(F)F)c1 [N-{4-[1-(2-Chloro-benzoyl)-piperidin-4-yl]-3-trifluoromethyl-benzoyl}-guanidine]
93 nM	N#Cc1ccccc1C(=O)N1CC=C(c2ccc(C(=O)NC(=N)N)cc2C(F)(F)F)CC1 [N-{4-[1-(2-Cyano-benzoyl)-1,2,3,6-tetrahydro-pyridin-4-yl]-3-trifluoromethyl-benzoyl}-guanidine]
62 nM	N#Cc1ccccc1C(=O)N1CCC(c2ccc(C(=O)NC(=N)N)cc2C(F)(F)F)CC1 [N-{4-[1-(2-Cyano-benzoyl)-piperidin-4-yl]-3-trifluoromethyl-benzoyl}-guanidine]
5 nM	CN(C)CC(=O)N1CCC(c2ccc(C(=O)NC(=N)N)cc2C(F)(F)F)CC1 [N-{4-[1-(2-Dimethylamino-acetyl)-piperidin-4-yl]-3-trifluoromethyl-benzoyl}-guanidine]
305 nM	N=C(N)NC(=O)c1ccc(C2CCN(C(=O)c3ccc(C(F)(F)F)cc3F)CC2)c(C(F)(F)F)c1 [N-{4-[1-(2-Fluoro-4-trifluoromethyl-benzoyl)-piperidin-4-yl]-3-trifluoromethyl-benzoyl}-guanidine]
125 nM	N=C(N)NC(=O)c1ccc(C2CCN(C(=O)c3ccccc3F)CC2)c(C(F)(F)F)c1 [N-{4-[1-(2-Fluoro-benzoyl)-piperidin-4-yl]-3-trifluoromethyl-benzoyl}-guanidine]
16 nM	Cc1cc(C2CCN(C(=O)C(C)(C)O)CC2)c(C(F)(F)F)cc1C(=O)NC(=N)N [N-{4-[1-(2-Hydroxy-2-methyl-propionyl)-piperidin-4-yl]-2-methyl-5-trifluoromethyl-benzoyl}-guanidine]
6 nM	N=C(N)NC(=O)c1ccc(C2CCN(C(=O)Cn3ccnc3)CC2)c(C(F)(F)F)c1 [N-{4-[1-(2-Imidazol-1-yl-acetyl)-piperidin-4-yl]-3-trifluoromethyl-benzoyl}-guanidine]
54 nM	C[S+]([O-])c1ccccc1C(=O)N1CCC(c2ccc(C(=O)NC(=N)N)cc2C(F)(F)F)CC1 (centres unmarked) [N-{4-[1-(2-Methanesulfinyl-benzoyl)-piperidin-4-yl]-3-trifluoromethyl-benzoyl}-guanidine]
73 nM	CS(=O)(=O)c1ccccc1C(=O)N1CC=C(c2ccc(C(=O)NC(=N)N)cc2C(F)(F)F)CC1 [N-{4-[1-(2-Methanesulfonyl-benzoyl)-1,2,3,6-tetrahydro-pyridin-4-yl]-3-trifluoromethyl-benzoyl}-guanidine]
69 nM	CS(=O)(=O)c1ccccc1C(=O)N1CCC(c2ccc(C(=O)NC(=N)N)cc2C(F)(F)F)CC1 [N-{4-[1-(2-Methanesulfonyl-benzoyl)-piperidin-4-yl]-3-trifluoromethyl-benzoyl}-guanidine]
